12 compounds from PubChem BioAssay (NCI) can be followed below.

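Method: 48-hour compound exposure of cells in 96-well plates, five concentrations, linear interpolation of endpoints. Here, GI50 denotes the concentration required for 50% inhibition of growth. TGI is the concentration that stops growth completely.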

Among the test systems are SNB-75 CNS; TK-10 renal; IGROV1 ovarian; K-562 leukemia; PC-3 prostate; CCRF-CEM leukemia; BT-549 breast; MCF7 breast; SR leukemia; MALME-3M melanoma.
What all share (assay): inhibition of tumour cell growth, NCI panel, 48 h

Turning to `O=c1c2cc(I)ccc2nc(SCc2n[nH]c(=S)o2)n1Cc1ccccc1`, the TGI with SNB-75 CNS came out at 23.1 µM; in the experiment on TK-10 renal, 37.7 µM; with IGROV1 ovarian, 35.3 µM; with K-562 leukemia, 70.8 µM; with PC-3 prostate, 31.3 µM; in the experiment with CCRF-CEM leukemia, 43.8 µM. The TGI in the experiment on BT-549 breast was 37.1 µM; in the experiment with MCF7 breast, 31.7 µM; with SR leukemia it was over 100 µM; in the experiment with MALME-3M melanoma, 34.8 µM.
On to `COc1cc(-c2n/c(=C\c3c(O)[nH]c4cc(Cl)ccc34)cc3c2=Nc2ccccc2-3)cc(OC)c1OC`, for which the GI50 in the experiment with SNB-75 CNS is 5.05 µM; in the experiment on TK-10 renal it was 2.34 µM; with IGROV1 ovarian, 5.56 µM; with K-562 leukemia, 3.57 µM; with PC-3 prostate it was 4.59 µM; in the experiment on CCRF-CEM leukemia, 3.88 µM. Moreover, the GI50 with BT-549 breast is 2.25 µM; in the experiment with MCF7 breast it was 2.71 µM; in the experiment with SR leukemia, 2.38 µM; in the experiment on MALME-3M melanoma it was 2.98 µM. Further, the TGI in the experiment with SNB-75 CNS was 25.1 µM; in the experiment on TK-10 renal, 5.26 µM; in the experiment with IGROV1 ovarian, 51.1 µM; in the experiment with K-562 leukemia, 48.6 µM; in the experiment with PC-3 prostate, 58.4 µM; in the experiment on CCRF-CEM leukemia, over 100 µM. The TGI with BT-549 breast is 5.12 µM; with MCF7 breast, 13.6 µM; with SR leukemia, 6.35 µM; in the experiment with MALME-3M melanoma it was 9.41 µM.
Regarding `N#Cc1c(Cl)nc2ccccc2c1N=[N+]=[N-]`, the TGI in the experiment with SNB-75 CNS was determined as 21.9 µM; in the experiment with TK-10 renal, 9.82 µM; in the experiment with IGROV1 ovarian, 3.9 µM; with K-562 leukemia it was 2.45 µM; in the experiment with PC-3 prostate, 8.44 µM; in the experiment with CCRF-CEM leukemia, 4.24 µM. The TGI came to 4.16 µM with BT-549 breast, 22.5 µM in the experiment on MCF7 breast, 3.93 µM in the experiment with SR leukemia and 3.75 µM with MALME-3M melanoma.
For `CC(C)(C)OC(=O)c1ccc(NCC2=CC(=O)C=CC2=O)cc1`, the TGI with SNB-75 CNS is 24.3 µM; in the experiment on TK-10 renal it was 21.3 µM; in the experiment on IGROV1 ovarian, 23.9 µM; with K-562 leukemia it was over 100 µM; with PC-3 prostate, 24.4 µM; in the experiment with CCRF-CEM leukemia, 5.35 µM. Further, the TGI in the experiment with BT-549 breast was 29.5 µM; in the experiment on MCF7 breast, 12.3 µM; in the experiment with SR leukemia, over 23.1 µM; in the experiment with MALME-3M melanoma it was 9.82 µM.
Take `CCOC(=O)/C=C/[C@H](O)[C@@H](O)/C=C/C(=O)OCC`: the TGI was over 100 µM in the experiment on SNB-75 CNS; over 100 µM in the experiment with TK-10 renal; over 100 µM in the experiment with IGROV1 ovarian; 27.7 µM in the experiment with K-562 leukemia; over 100 µM in the experiment on PC-3 prostate; 32.6 µM in the experiment with CCRF-CEM leukemia. Besides, the TGI was over 100 µM in the experiment with BT-549 breast, 79.7 µM in the experiment on MCF7 breast, 40 µM in the experiment with SR leukemia and 46.8 µM in the experiment on MALME-3M melanoma.
`NC(=O)C(=O)C(c1ccccc1)S(=O)(=O)Cc1ccccc1` (centres undefined): the TGI with SNB-75 CNS, in the experiment on TK-10 renal, in the experiment with IGROV1 ovarian, with K-562 leukemia, in the experiment on PC-3 prostate and with CCRF-CEM leukemia was over 100 µM each time. The TGI in the experiment with BT-549 breast, in the experiment with MCF7 breast and in the experiment on SR leukemia was over 100 µM each time.
Turning to `CN(C)C=NCCN1CCOCC1`, the TGI in the experiment on SNB-75 CNS, in the experiment with TK-10 renal, in the experiment with IGROV1 ovarian, in the experiment on K-562 leukemia, in the experiment on PC-3 prostate and in the experiment with CCRF-CEM leukemia was over 100 µM throughout. Besides, the TGI with BT-549 breast, in the experiment on MCF7 breast, in the experiment with SR leukemia and in the experiment with MALME-3M melanoma was over 100 µM in each case.
With `Cc1ccc(N2CCN(CCC(=O)O)CC2)cc1`, the TGI in the experiment on SNB-75 CNS, with TK-10 renal, in the experiment with IGROV1 ovarian, in the experiment on K-562 leukemia, with PC-3 prostate and with CCRF-CEM leukemia was over 100 µM in each case. Besides, the TGI in the experiment on BT-549 breast, with MCF7 breast, in the experiment on SR leukemia and with MALME-3M melanoma was over 100 µM in each case.
Take `N#Cc1c(O)c(N=Nc2ccc(Cl)cc2)c(=O)n2c1[nH]c1ccccc12`: the TGI with SNB-75 CNS, in the experiment on TK-10 renal, in the experiment on IGROV1 ovarian, with K-562 leukemia, with PC-3 prostate and with CCRF-CEM leukemia was over 100 µM throughout. Moreover, the TGI with BT-549 breast, in the experiment with MCF7 breast, in the experiment on SR leukemia and in the experiment with MALME-3M melanoma was over 100 µM in each case.
For `CCCCCCOc1ccc(C(=O)N(C)O)cc1`, the TGI is over 94.4 µM in the experiment on SNB-75 CNS; over 100 µM with TK-10 renal; over 100 µM in the experiment with IGROV1 ovarian; over 78.8 µM in the experiment on K-562 leukemia; 98 µM with PC-3 prostate; 23.5 µM in the experiment with CCRF-CEM leukemia. Also, the TGI in the experiment on BT-549 breast was over 100 µM; with MCF7 breast, over 100 µM; in the experiment on SR leukemia, 39.6 µM; in the experiment with MALME-3M melanoma, 57.3 µM.
Take `O=C(O)CN1CCN(CC(=O)N2CCN(C(=O)OCc3ccccc3)CC2)CCN(CC(=O)O)CCN(CC(=O)N2CCN(C(=O)OCc3ccccc3)CC2)CC1`: the TGI in the experiment on SNB-75 CNS, with TK-10 renal, in the experiment with IGROV1 ovarian, with K-562 leukemia, with PC-3 prostate and in the experiment on CCRF-CEM leukemia was over 100 µM each time. For the same compound, the TGI in the experiment on BT-549 breast, with MCF7 breast, with SR leukemia and in the experiment on MALME-3M melanoma was over 100 µM each time.
As to `CC(C)(C)OC/C=C1\C(=O)O[C@H]2C[C@@H](O[Si](C)(C)C(C)(C)C)C[C@@H]12`, the TGI in the experiment on SNB-75 CNS, with TK-10 renal, in the experiment on IGROV1 ovarian, in the experiment with K-562 leukemia, in the experiment on PC-3 prostate and in the experiment on CCRF-CEM leukemia was over 100 µM throughout. The TGI in the experiment on BT-549 breast, in the experiment with MCF7 breast, with SR leukemia and in the experiment with MALME-3M melanoma was over 100 µM each time.
